Values quoted from earlier work as cited in patent US20070028401A1, “Powdered preparations containing a mixture of 2,4,6-trianilino-p-(carbo-2'-ethylhexyl-1'-oxi)-1,3,5-triazine and diethylamino-hydroxybenzoyl-hexyl-benzoate” (BASF Aktiengesellschaft, priority 2003, published 2007).
Read-outs that look alike come from different tables or passages of the source.

absorbance coefficient (at 314 nm) | absorbance coefficient (at 354 nm) | SMILES
> 1500 | – | CCCCC(CC)COC(=O)c1ccc(Nc2nc(Nc3ccc(C(=O)OCC(CC)CCCC)cc3)nc(Nc3ccc(C(=O)OCC(CC)CCCC)cc3)n2)cc1 (centres unmarked) [Uvinul T150, 2,4,6-Trianilino-p-(carbo-2′-ethylhexyl-1′-oxy)-1,3,5-triazine]
– | 940 | CCCCCCOC(=O)c1ccccc1C(=O)c1ccc(N(CC)CC)cc1O [Uvinul® A Plus, Diethylamino hydroxybenzoyl hexyl benzoate]
